Patent US20230302150A1, “ANTIBODY-TLR AGONIST CONJUGATES, METHODS AND USES THEREOF” (Ambrx, Inc., priority 2020, published 2023)
Read-outs that look alike come from different tables or passages of the source.

Assays:
TLR8 = biological target: T1, TLR8 (Homo sapiens, UniProt Q9NR97); test: TLR8 reporter assay; assay type: cell-based
T1 sequence (Q9NR97 27-1041): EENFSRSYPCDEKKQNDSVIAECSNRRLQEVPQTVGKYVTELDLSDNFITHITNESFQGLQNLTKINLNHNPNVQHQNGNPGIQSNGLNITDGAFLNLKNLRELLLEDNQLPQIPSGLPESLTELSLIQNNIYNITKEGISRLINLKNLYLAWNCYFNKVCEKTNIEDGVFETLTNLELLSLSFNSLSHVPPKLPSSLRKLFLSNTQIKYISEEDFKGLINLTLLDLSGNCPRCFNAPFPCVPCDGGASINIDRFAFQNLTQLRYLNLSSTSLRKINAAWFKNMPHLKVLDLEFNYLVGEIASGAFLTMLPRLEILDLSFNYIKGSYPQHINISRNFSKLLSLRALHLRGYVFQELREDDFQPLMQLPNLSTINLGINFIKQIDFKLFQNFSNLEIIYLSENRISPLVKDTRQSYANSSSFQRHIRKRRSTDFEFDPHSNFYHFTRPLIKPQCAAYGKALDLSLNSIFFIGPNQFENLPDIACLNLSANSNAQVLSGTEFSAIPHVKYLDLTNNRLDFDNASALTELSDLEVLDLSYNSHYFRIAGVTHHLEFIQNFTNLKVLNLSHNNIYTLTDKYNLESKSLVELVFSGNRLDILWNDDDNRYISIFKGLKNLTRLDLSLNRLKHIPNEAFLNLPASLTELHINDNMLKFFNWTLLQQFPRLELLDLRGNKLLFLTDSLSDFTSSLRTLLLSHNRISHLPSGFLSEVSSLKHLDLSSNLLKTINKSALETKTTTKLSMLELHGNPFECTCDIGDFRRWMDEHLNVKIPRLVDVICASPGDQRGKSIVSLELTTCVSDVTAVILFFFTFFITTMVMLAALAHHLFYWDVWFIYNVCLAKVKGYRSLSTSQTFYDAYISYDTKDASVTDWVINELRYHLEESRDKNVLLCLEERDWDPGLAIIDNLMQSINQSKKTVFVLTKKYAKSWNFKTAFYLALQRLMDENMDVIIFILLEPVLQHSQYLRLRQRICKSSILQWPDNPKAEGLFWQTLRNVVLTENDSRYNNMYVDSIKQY

hTLR7 = biological target: T2, hTLR7 (Homo sapiens, UniProt Q9NYK1); test: HEK-Blue hTLR7 reporter assay (NF-kB-induced SEAP, Quanti-Blue); assay type: cell-based
T2 construct: expressed in transfected cells; host or cells: HEK-Blue hTLR7 reporter cell line
T2 sequence (Q9NYK1 27-1049): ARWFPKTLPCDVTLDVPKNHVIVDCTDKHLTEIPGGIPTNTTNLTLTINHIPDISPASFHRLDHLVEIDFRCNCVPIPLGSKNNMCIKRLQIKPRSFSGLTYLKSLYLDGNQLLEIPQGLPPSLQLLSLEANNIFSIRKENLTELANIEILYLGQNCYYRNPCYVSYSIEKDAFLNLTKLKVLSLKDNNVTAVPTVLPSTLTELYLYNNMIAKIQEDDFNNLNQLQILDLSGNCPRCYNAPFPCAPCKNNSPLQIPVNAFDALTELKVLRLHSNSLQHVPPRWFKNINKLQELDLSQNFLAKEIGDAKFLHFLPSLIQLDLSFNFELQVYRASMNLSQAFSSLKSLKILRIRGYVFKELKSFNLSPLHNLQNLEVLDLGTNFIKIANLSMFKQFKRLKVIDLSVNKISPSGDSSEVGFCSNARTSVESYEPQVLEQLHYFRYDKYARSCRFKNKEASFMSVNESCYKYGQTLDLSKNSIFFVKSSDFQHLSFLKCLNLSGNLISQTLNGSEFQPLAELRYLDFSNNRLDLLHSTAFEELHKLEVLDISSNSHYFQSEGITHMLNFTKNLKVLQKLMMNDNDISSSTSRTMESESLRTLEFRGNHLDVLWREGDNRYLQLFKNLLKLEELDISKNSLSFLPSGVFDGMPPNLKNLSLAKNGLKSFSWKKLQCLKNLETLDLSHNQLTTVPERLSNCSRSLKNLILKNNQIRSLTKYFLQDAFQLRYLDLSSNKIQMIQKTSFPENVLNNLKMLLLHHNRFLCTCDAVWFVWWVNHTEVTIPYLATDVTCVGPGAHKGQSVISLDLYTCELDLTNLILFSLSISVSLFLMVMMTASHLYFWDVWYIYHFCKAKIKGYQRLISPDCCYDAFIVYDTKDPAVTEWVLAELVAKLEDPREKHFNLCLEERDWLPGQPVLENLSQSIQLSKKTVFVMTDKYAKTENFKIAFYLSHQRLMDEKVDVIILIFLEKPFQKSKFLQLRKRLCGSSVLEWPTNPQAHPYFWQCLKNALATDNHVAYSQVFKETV
Description: HEK-Blue™ hTLR7 cells were incubated in HEK-Blue™ Detection medium and stimulated with increasing concentrations of TLR7 or TLR8 or TLR7/8 agonists. […] The EC50 was determined from dose-response curve using Prism Software.

[1] = system: SKOV3 HER2 high expressing tumor cell line / RAW-Blue cells; test: RAW-Blue co-culture assay with SKOV3 tumor cells; assay type: cell-based, human; conditions: conjugated to anti-HER2 antibody; data not shown
Description: (§1) RAW-Blue™ cells (Invivogen, San Diego, CA) were co-cultured with human tumor cells with different levels of HER2 expression level at 1:1 E:T ratio with total number of 1 million cells per well in the 96 wells plate. Different concentration of small molecule TLR7 agonist and conjugated ISACs, (Immune Stimulating Antibody Conjugates), were added to the co-culture cell medium. After 24 h incubation, the levels of NF-kB-induced SEAP from the RAW-Blue™ cells were determined by Quanti-Blue detection reagents (Invivogen, San Diego, CA) with readings at OD 655 nm. The dose-response curves were generated using Prism Software.

[2] = system: SKBR3 HER2 high expressing tumor cell line / RAW-Blue cells; test: RAW-Blue co-culture assay with SKBR3 tumor cells (HER2 ISACs); assay type: cell-based, human
Description: as §1

Row | EC50 (hTLR7; Table 12, TLR7 agonists attached to a linker, read-out: TLR Agonist Payload + Linkers EC50) | EC50 (hTLR7; Table 15, drug linker, read-out: TLR Agonist + Linker (DL) - EC50) | EC50 (hTLR7; Table 15, pAF containing final metabolite, read-out: TLR Agonist + Linker + nnAA (DL-pAF) - EC50) | EC50 (hTLR7; Table 19, TLR7, drug-linkers with PEG shielding, read-out: EC50) | Compound | EC50 (TLR8) | EC50 (hTLR7; Table 11, TLR7 activities, read-out: EC50) | EC50 (hTLR7; text to Table 11, TLR7, read-out: EC50) | tumor dependent ISAC activity [1] | tumor dependent ISAC activity [2]
1 |  |  |  |  | CCCN(CCC)C(=O)C1=Cc2ccc(-c3ccc(C(=O)N4CCCC4)cc3)cc2N=C(N)C1 [Motolimod, reference compound] | 1430 nM |  |  |  | 
2 |  |  |  |  | CCCCOc1nc(N)c2[nH]c(=O)n(Cc3ccc(CN4CCC(CCNC(=O)c5cc(F)c(N)c(F)c5)CC4)cc3)c2n1 [AXC-887, 4-amino-N-(2-(1-(4-((6-amino-2-butoxy-8-oxo-7H-purin-9(8H)-yl)methyl)benzyl)piperidin-4-yl)ethyl)-3,5-difluorobenzamide] | 3730 nM | 4.6 nM | < 10 nM |  | 
3 | 864 nM | 864 nM | 287 nM | 320 nM | CCCCOc1nc(N)c2[nH]c(=O)n(Cc3ccc(CNC(=O)CCOCCON)cc3)c2n1 [AXC-863] |  |  |  | potent dose dependent activities only in the presence of HER2 high expressing tumor cell lines | potent dose dependent activities only in the presence of HER2 high expressing tumor cell lines
